Experimental data: patent publication US6602870B2, “Oral dosage form for administration of the combination of tegafur, uracil, folinic acid, and oxaliplatin and method of using the same” (Bristol-Myers Squibb Company, priority 2000, dated 2003)
Values joined by “and” are separate entries in the source; they are usually repeats but may differ in a detail not shown here. Equal values may be shown once.

How the values were obtained:
[1] = test system: human HT29 colorectal tumor cell xenografts; assay: Growth inhibition study in nude mice transplanted with human HT29 colorectal tumor cell xenografts; assay type: in vivo
Experimental: Growth inhibition studies were performed using nude mice transplanted with human HT29 colorectal tumor cell xenografts and 1) not treated (control group), or treated 2) with oral UFT (20 mg/kg/day) and calcium folinate (4 mg/kg/day) for 28 days; 3) intraperitonealy with oxaliplatin (10 mg/kg at day 1), or 4) with a combination of oxaliplatin with UFT and calcium folinate. Tumor measurements were performed twice a week, and animals were sacrificed at day 28. The tumors were excised and weighed. Two separate experiments were performed, for a total number of 25 animals in each group.
Human colorectal cancer HT29 cells, obtained from Dr. J. Fogh (Sloan Kettering Institute for Cancer Research, N.Y.), were cultured in DMEM (Dulbeccos modified Eagle's medium, Eurobio, Paris, France), supplemented with 10% heat-decomplemented fetal bovine serum (Boehringer, Manheim, Germany), 100 U/ml penicillin, 100 μg/ml streptomycin and […] glutamine. Cells were grown at 37° C. in a humidified atmosphere containing 5% CO2. The medium was renewed every 2 days, and the cells were passaged twice a week by trypsin/EDTA to maintain the cells in exponential growth.
Female BALB/c nude (nu+/nu+) aged 6 weeks were maintained in pathogen free state. Human HT29 colorectal xenograft (1×10^6 cells) was transplanted sub-cutaneously into the hind limb of each animal. Treatment was initiated 14 days later when the tumor became easily palpable and measurable (mean size of tumor surface=33 mm^2).
Oxaliplatin was administered intraperitoneally at a dose of 10 mg/kg day 1. […]
Two axes (mm) of tumor (the longest axis and the axis perpendicular to the longest axis) were measured with a caliper. Tumor measurements and body weights were recorded twice a week. […] Toxicity was evaluated in terms of body weight ratio (Wn/Wo) and mortality; Wn is the body weight measured n days after the initial administration, while Wo is the body weight at the start of administration. […] Results are expressed as mean weight (grams)±standard deviation. […]

[2] = Toxicity (body weight ratio, mortality) in HT29 xenograft nude mice; assay type: in vivo; settings: day 28 before sacrifice; 25 animals per group
Experimental: Tumor measurements and body weights were recorded twice a week. […] For each experiment, the same observer made all measurements to minimize variations. Toxicity was evaluated in terms of body weight ratio (Wn/Wo) and mortality; Wn is the body weight measured n days after the initial administration, while Wo is the body weight at the start of administration. […] Two consecutive experiments gave similar data, and results represent the average of all data for a total of 25 animals per group. The means of each of the four groups were compared using the one-way analysis of variance. The Barlett's test was used for homogeneity of variances and the Tukey-Kramer multiple comparison test for inter-group comparison. Data analysis was performed using an IBM PC. Statistical analysis and graphs were performed using Instat and Prism software (GraphPad, San Diego, Calif.).
Body weight was evaluated in terms of the ratio of body weight measured n days after treatment (Wn) as compared to the body weight at the start of treatment (Wo). All animals (25 per group) were weighed twice a week.

## O=C1[O][Pt]2([NH][C@@H]3CCCC[C@H]3[NH]2)[O]C1=O [oxaliplatin, [(1R, 2R)-1,2-cyclohexanediamine-N,N′][oxalato(2-)-O, O′]platinum]
[1]; day 28, FIG. 1
  Decrease of tumor size (tumor growth inhibition) as compared to control: 24%
[1]; day 28, same doses
  Tumor weight decrease as compared to control: 29.9% and 30%
[1]; tumors excised 28 days after treatment initiation, 25 animals per group, UFT 20 mg/kg/day + calcium folinate 4 mg/kg/day oral day 1-28, oxaliplatin 10 mg/kg i.p. day 1
  Mean tumor weight: 2.03 ± 0.14 g
[2]
  Body Weight Ratio (Wn/Wo): 1.05 ± 0.09
